Test results taken from patent US20130237601A1, “COMPOSITION FOR THE TREATMENT AND/OR PREVENTION OF FIRE BLIGHT” (LANXESS DISTRIBUTION GMBH, priority 2006, published 2013).
Structures can show the parent of a compound that is named as a salt.

Test system: Erwinia amylovora
Assay: Test for inhibitory activity against Erwinia amylovora (inhibitory zone on CYE medium plates)
Type: cell-based
Conditions: after 24 hours, read-out: Inhibitory zone diameter
Method: 10 μl of an Erwinia amylovora suspension were plated onto CYE medium at a density of 10^8 cfu/ml. Thereafter, a hole 5 mm in diameter was punched into the center of the plates, and 20 μl of the test solution were introduced. After 24 hours, the inhibitory zone was measured. The reference substance was streptomycin sulfate, and the negative control was tap water.
The product used was an aqueous solution of the preparation according to the invention in the form of granules of formic acid and/or a salt of formic acid, in particular calcium formate, whose content in formic acid and/or a salt of formic acid, in particular calcium formate, was approximately 80% by weight. This preparation was diluted with tap water to give the concentrations stated (based on the granules).

## [H]/N=C(/N)N[C@H]1[C@H](O)[C@@H](O)[C@H](O[C@@H]2O[C@@H](C)[C@](O)(C=O)[C@H]2O[C@@H]2O[C@@H](CO)[C@H](O)[C@@H](O)[C@@H]2NC)[C@@H](N/C(N)=N\[H])[C@@H]1O [Streptomycin sulfate, streptomycin sulfate]
Concentration 0.001% by weight
  zone of inhibition at 0.001 % strength: 16 mm
Concentration 0.01% by weight
  zone of inhibition at 0.01 % strength: 20 mm
Concentration 0.1% by weight
  zone of inhibition at 0.1 % strength: 24 mm
